Measurements taken from PubChem BioAssay (NCI).
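Exposure lasted 48 hours, with cells grown in 96-well plates and compounds tested at five concentrations. The concentration for 50% growth inhibition is given as GI50. TGI denotes the concentration required for complete inhibition of growth.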

Tests used:
Test in all cases: NCI tumour cell line growth inhibition, 48 h
SR leukemia = tested on: SR leukemia
DMS 273 small cell lung = tested on: DMS 273 small cell lung
LXFL 529 NSCLC = tested on: LXFL 529 NSCLC
M19-MEL melanoma = tested on: M19-MEL melanoma
SN12K1 renal = tested on: SN12K1 renal
P388 leukemia = tested on: P388 leukemia
P388/ADR leukemia = tested on: P388/ADR leukemia
RXF-631 renal = tested on: RXF-631 renal

Row | Structure (SMILES) | TGI (SR leukemia) [µM] | TGI (DMS 273 small cell lung) [µM] | TGI (M19-MEL melanoma) [µM] | also measured
1 | CN1Cc2cc(O)c(O)cc2C(O)C1 (stereo not drawn) | > 100 |  |  | 
2 | COC(=O)C(Cc1ccc(N(C)C)cc1)(NC(=O)c1ccccc1)P(=O)(OC)OC (stereo not drawn) | > 100 | > 100 | > 100 | TGI (LXFL 529 NSCLC): > 100 µM
3 | S=c1nc(N/N=C/c2cccs2)c2cn[nH]c2[nH]1 | 37.2 |  |  | 
4 | COc1ccc(NC(C(N)=O)c2cc3cc(Br)ccc3nc2Cl)cc1 (stereo not drawn) | 51.6 |  |  | 
5 | COC1=C(C)C(=O)C2=C(C1=O)C1C3CC4=C(C(=O)C(OC)=C(C)C4=O)C(CNC(=O)C(C)O)N3C(C#N)C(C2)N1C (stereo not drawn) | > 100 | < 0.0111 | < 0.01 | TGI (SN12K1 renal): < 0.01 µM
6 | C=CC(C)C1(CCCOCc2ccccc2)C(=S)N2CCC3(CC24CCCC14)OCCO3 (stereo not drawn) |  | > 100 | > 100 | TGI (LXFL 529 NSCLC): > 100 µM
7 | COC1=CC(=O)C=C(OC)C1=O |  | 76.8 | 8.19 | TGI (P388 leukemia): 1.25 µM; TGI (P388/ADR leukemia): 1.08 µM; TGI (SN12K1 renal): 18 µM
8 | COC(=O)[C@]1(c2ccc(N(C)C)cc2OC)C[C@@H]2CCCN(CCc3c1[nH]c1ccccc31)C2 |  | 45.1 | 32.8 | TGI (P388 leukemia): 36 µM; TGI (P388/ADR leukemia): 47.1 µM; TGI (SN12K1 renal): 34.6 µM
9 | COc1cc2c(cc1Oc1c(Oc3c(O)c(OC)cc4c3C(CC(C)C)N(C)CC4)c(OC)cc3c1C(CC(C)C)N(C)CC3)C(CC(C)C)N(C)CC2 (stereo not drawn) |  | 4.21 | 2.58 | TGI (P388 leukemia): 3.62 µM; TGI (P388/ADR leukemia): 3.71 µM; TGI (SN12K1 renal): 3.79 µM
10 | O=C(Nc1ccccc1Cl)c1ccc([N+](=O)[O-])cc1 |  | > 100 | > 100 | 
11 | CCOc1ccc(C(C)c2cc3c(cc2OC)OCO3)cc1 (stereo not drawn) | 0.442 | 11.7 |  | TGI (LXFL 529 NSCLC): > 100 µM
12 | CN(O)C(=O)CCCC(=O)NCC(C)(C)CNC(=O)CCCC(=O)N(C)O | > 100 |  |  | 
13 | Cc1cc(OCCOCCC(F)(F)P(=O)(O)O)ccc1CCc1cnc2c(N)nc3cc(CCC(=O)O)ccc3c2c1 | > 100 |  |  | GI50 (SR leukemia): > 100 µM
14 | O=C(O)/C(=C\c1ccc(O)cc1)c1cccc2ccccc12 | > 100 |  |  | 
15 | O=P(Nc1ccccc1)(Oc1ccccc1)N(CCCl)CCCl (stereo not drawn) | > 100 | > 100 | > 100 | TGI (RXF-631 renal): > 100 µM
16 | Cc1[nH]c2ccccc2c1/C=N/NC(=O)c1cccc(I)c1 | 44.5 |  |  | 
